Patent US20160139132A1, “Method of Diagnosis or Prognosis of a Neoplasm Comprising Determining the Level of Expression of a Protein in Stromal Cells Adjacent to the Neoplasm” (Thomas Jefferson University, priority 2009, published 2016)

What was measured:
[1] = tested on: Cav-1 in stromal fibroblasts co-cultured with MCF-7 cells; experiment: Co-culture of MCF-7 breast cancer cells with normal human fibroblasts: Cav-1 down-regulation; format: cell-based; conditions: co-culture with MCF-7 cells
Excerpt: Using this system, it was observed that within 5 days of co-culture MCF-7 cells down-regulate the expression of Cav-1 in adjacent stromal fibroblasts. This occurs via the degradation of Cav-1 in lysosomal structures, and can be inhibited by chloroquine, an anti-lysomal agent. Most importantly, MCF-7 cells induce oxidative stress in the adjacent fibroblasts via the over-production of reactive oxygen species (ROS). ROS, in turn, is known to stabilize and activate certain transcription factors, such as NFkB and HIF. NFkB- and HIF-are the master regulators of “inflammation” and “hypoxia/aerobic glycolysis” in the tumor microenvironment. Thus, in order to detect the activation of NFkB and HIF only in the fibroblast cell population, two different fibroblast cell lines engineered to express either a NFkB-luciferase or HIF-luciferase transcriptional reporter were used. […] As such, NFkB is activated first, while HIF is activated on day 4 and day 5 of coculture, coincident with Cav-1 down-regulation. Thus, cancer cells induce the Warburg effect in adjacent stromal fibroblasts via the activation of NFkB and HIF-target genes, leading to inflammation and aerobic glycolysis. These findings provide a mechanistic basis for the “Reverse Warburg Effect”, and a new high-throughput drug-screening assay for the identification of novel compounds that block the “Reverse Warburg Effect”.

[2] = tested on: MDA-MB-231 breast cancer cells co-injected with Cav-1-deficient stromal fibroblasts; experiment: Human tumor xenograft: nude mice co-injected with MDA-MB-231 cells and Cav-1-deficient stromal fibroblasts, treated with glycolysis inhibitors; format: in vivo; conditions: given individually, dosage of 200 mg/kg
Protocol: Treatment with Glycolysis Inhibitors Functionally Blocks Cancer-Associated Fibroblast Induced Breast Cancer Tumor Growth. […] Mice co-injected with Cav-1-deficient stromal fibroblasts and MDA-MB-231 breast cancer cells were treated with glycolysis inhibitors. The efficacy of two well-established glycolysis inhibitors, namely 2-DG (2-deoxy-D-glucose) and DCA (dichloro-acetate), individually or in combination were tested.
To provide additional experimental validation for the idea that an absence of stromal Cav-1 promotes breast cancer tumor growth and angiogenesis, a 2-component cell-system using xenografts in immuno-deficient female nude mice was developed. Briefly, the flanks of nude mice were injected with a mixture of 1) MDA-MB-231 cells (a highly aggressive human breast cancer cell line; 1.0×10-6 cells) and 2) stromal fibroblasts, derived from either WT or Cav-1 (−/−) null mice (0.3×10-6 cells). After 3 weeks, nude mice were sacrificed and breast cancer-derived tumors were subjected to analysis for growth (tumor weight and volume measurements) and immuno-histochemistry with markers of angiogenesis, such as CD31 (a.k.a, PECAM1).
In this two-component system, nude mice are co-injected with i) human breast cancer ceils (MDA-MB-231), and ii) stromal fibroblasts (WT versus Cav-1 (−/−) deficient). […]

neovascularization = conditions: Oikawa (1988); cited from earlier work
breast cancer patients = experiment: Progression-free survival of breast cancer patients (tissue microarray cohort) by stromal Cav-1 and tamoxifen use; format: in vivo, human; conditions: Tamoxifen use Yes vs No (ref); adjusted for T stage, N stage, Cav-1 score
Protocol: Breast tissues for tissue microarray construction were obtained from the Surgical Pathology files at the University of Michigan with Institutional Review Board (IRB) approval. The TMA contained tissues derived from 154 largely consecutive patients with invasive carcinomas of the breast, with follow-up information treated at the University of Michigan from 1987-1991. Clinical and pathological variables were determined following well-established criteria. All invasive carcinomas were graded according to the method described by Elston and Ellis 17; Lymphovascular Invasion (LV1) was classified as either present or absent. […]
Cav-1 expression in the tumor stroma was assessed by employing a standard immuno-peroxidase method (DakoCytornation LSAB2 System-HRP, Carpinteria, Calif.), using rabbit polyclonal antl-Cav-1 TgG (N-20; directed against Ntenninal residues 2-21 of human Cav-1; Santa Cruz Biotechnology, Santa Cruz, Calif.; dilution 1:500). The staining was scored semi-quantitatively as negative (0; no staining), weak (1; either diffuse weak staining or strong staining in less than 30% of stromal cells per core) and strong (2; defined as strong staining of 30% or more of the stromal cells). […]
For each patient, the date of breast cancer diagnosis, date of last follow-up, vital status at last follow-up, causes of death (breast cancer or other), and breast cancer recurrence, were recorded. […]

[3] = tested on: PD-ECGF/TP transfected cells; conditions: transfected compared with untransfected wild-type cells; Haraguchi (1993); cited from earlier work

For `CCN(CC)CCCC(C)Nc1ccnc2cc(Cl)ccc12` (stereo not drawn) [chloroquine], the “degradation of Cav-1 in lysosomal structures (Cav-1 down-regulation in adjacent stromal fibroblasts)” value [1] was “inhibited”.
With `O=CC[C@@H](O)[C@H](O)[C@H](O)CO` [2-DG, 2-deoxy-D-glucose] the “effect on tumor growth” value [2] was “no effect”.
For `CC(=O)O[C@]1(C(C)=O)CC[C@H]2[C@@H]3C[C@H](C)C4=CC(=O)CC[C@]4(C)[C@H]3CC[C@@]21C` [MPA, medroxyprogesterone acetate], the neovascularization (neovascularization) is given as “potently inhibited”.
In the case of `CC/C(=C(\c1ccccc1)c1ccc(OCCN(C)C)cc1)c1ccccc1` [Tamoxifen], the “Cox regression of Progression-Free Survival (PFS): Coefficient” value (breast cancer patients) is reported as −0.476.
In the case of `O=C(O)C(Cl)Cl` [DCA, dichloro-acetate], the “effect on tumor growth” value [2] is reported as “no effect”.
In the case of `C[C@H]1O[C@@H](n2cc(F)c(=O)[nH]c2=O)[C@H](O)[C@@H]1O` [5′DFUR, 5′-deoxy-5-fluorouridine], the antitumor effect [3] is given as “dramatic enhancement of antitumor effect”.
